Laboratory results published in patent US5583155A, “6-amino-1,2-benzopyrones useful for treatment of viral diseases” (Octamer, Inc., priority 1994, dated 1996).

Tested on: established cell lines
Test: Intracellular drug concentration / transport in twelve cell lines
Type: in vitro ADME
Protocol: It is of importance to determine both intracellular drug concentrations and mechanisms of drug transport. Twelve different cell types were incubated with varying concentrations of the drug for varying periods and intracellular drug concentration assayed with the aid of [5^3 H] labeled 6-ABP. […] Thus, there is a significant transport regulation through the cell membrane.

## Nc1ccc2oc(=O)ccc2c1 [6-ABP, 6-amino-1,2-benzopyrone]
1 mM extracellular administration, depending on cell types
  concentration of intracellular drug: 65 to 200 µM
12 established cell lines
  intracellular plateau, % of drug concentration applied extracellularly: 10-20%
  time to plateau of 6-ABP transport: 18 to 24 h
Physiological pH 7.2-7.4
  penetration of mammalian cells: to a limited degree
